Laboratory results taken from patent publication US11420934B2, “PPAR agonists” (Salk Institute for Biological Studies, priority 2013, dated 2022).
pEC50: −log10 of the molar value. Read-outs that look alike come from different tables or passages of the source.

Legend:
[1] = biological target: T1, PPARδ (Homo sapiens, UniProt Q03181); experiment: Nuclear Hormone Receptor (NHR) protein interaction assay (PathHunter), agonist format; assay type: cell-based; settings: for EC50: Tables 7-16, read-out: NHR protein interaction assay, EC50 (nM) for PPARδ
T1 construct: expressed in transfected cells; host or cells: PathHunter NHR cell lines
T1 sequence (Q03181 1-441): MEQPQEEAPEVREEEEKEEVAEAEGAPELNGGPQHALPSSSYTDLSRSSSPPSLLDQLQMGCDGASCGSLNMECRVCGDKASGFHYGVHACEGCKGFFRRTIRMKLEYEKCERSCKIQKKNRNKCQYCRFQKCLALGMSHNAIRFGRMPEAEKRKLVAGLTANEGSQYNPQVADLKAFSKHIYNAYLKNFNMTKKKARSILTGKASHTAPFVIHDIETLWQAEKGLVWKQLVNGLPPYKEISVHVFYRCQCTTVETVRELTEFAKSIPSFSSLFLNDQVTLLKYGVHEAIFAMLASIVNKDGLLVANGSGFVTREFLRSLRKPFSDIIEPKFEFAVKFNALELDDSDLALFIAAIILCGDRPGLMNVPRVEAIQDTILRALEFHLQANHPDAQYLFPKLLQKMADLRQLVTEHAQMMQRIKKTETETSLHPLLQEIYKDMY
Experimental: PathHunter NHR cell lines were expanded from freezer stocks according to standard procedures. Cells were seeded in a total volume of 20 μL into white walled, 384-well microplates and incubated at 37° C. for the appropriate time prior to testing. Assay media contained charcoal-dextran filtered serum to reduce the level of hormones present.
For agonist determination, cells were incubated with sample to induce response. Intermediate dilution of sample stocks was performed to generate 5× sample in assay buffer. 5 μL of 5× sample was added to cells and incubated at 37° C. or room temperature for 3-16 hours. Final assay vehicle concentration was 1%.
Microplates were read following signal generation with a PerkinElmer Envision™ instrument for chemiluminescent signal detection.
Compound activity was analyzed using CBIS data analysis suite (ChemInnovation, CA). For agonist mode assays, percentage activity was calculated using the following formula: % Activity=100%×(mean RLU of test sample−mean RLU of vehicle control)/(mean MAX control ligand−mean RLU of vehicle control).

[2] = Pharmacokinetics in CD-1 mice; assay type: in vivo
Experimental: (§1) In this example, the PK profile of several PPARδ agonists disclosed herein in male CD-1 mice or Wistar rats was determined. Similar methods can be used to analyze other compounds provided herein.
(§2) (quantity sufficient i.e. made up to a final volume of 100% with water). All compounds were separately administered to CD-1 mice at 3 mg/kg iv or 10 mg/kg po.
(§3) The concentration of the compound in plasma was determined, as illustrated in FIGS. 9A-9E.

[3] = Pharmacokinetics in Wistar rats; assay type: in vivo; settings: male Wistar rats
Experimental: as §1, §2, §3

[4] = assay type: in vitro ADME
[5] = system: thermal injury to the TA; experiment: Muscle regeneration after thermal (freeze burn) injury to the TA, oral GW501516; assay type: in vivo, C57BL6J mice
Experimental: A stainless steel […] (Mettler-Toledo) equilibrated to the temperature of dry ice was placed directly on the exposed TA for 10 seconds. Following the thermal injury, incision was closed using VetBond (3M). All injury procedures were performed on the left leg, and the right leg was used as control.
Sterile 1% w/v Evans Blue dye in PBS was intraperitoneally injected at 1% volume relative to the body mass of an animal. 7 hours after the injection, injured TA muscles were harvested and snap-frozen by isopentane quenching in liquid nitrogen. Frozen sections were cut in 10 μm thickness, fixed in ice-cold acetone, dipped in xylene and mounted with DPX. Proportion of the stained area over the total area was measured using ImageJ software.
50 mg/kg body weight of BrdU (Sigma) was injected intraperitoneally as solution of 10 mg/mL BrdU in saline. TA muscles were harvested at 7 days after injury and processed for paraffin sections as described above. BrdU incorporation was visualized using the BrdU Labeling and Detection Kit I (Roche) and BrdU+ nuclei were counted and represented as a proportion of total nuclei in a field.
Whole or partial tissues were homogenized by Polytron probe homogenizer in Trizol reagent (Invitrogen). Total RNA was extracted from the homogenates according to the manufacturer's protocol. 1 μg of DNase-treated total RNA was reverse transcribed using Superscript II Reverse Transcriptase (Invitrogen) according to the manufacturer's instructions. cDNAs were diluted 1/40 with ddH2O and used as templates in RT-QPCR reactions with SYBRGreenER qPCR SuperMix detection system (Invitrogen). Samples were prepared in technical triplicates and relative mRNA levels were calculated by using the standard curve methodology and normalized against GAPDH mRNA levels in the same samples.

[6] = system: FGF1a promoter; experiment: Luciferase reporter assay of FGF1a promoter co-transfected with PPARδ; assay type: cell-based; settings: with ligand
[7] = system: AKO mice; experiment: GW treatment in mouse model of ALD (AKO mice); assay type: in vivo
From the text: ALD is a rare genetic disorder caused by defects in peroxisomal oxidation of very long-chain fatty acids (VLCFAs), resulting in systemic accumulation of VLCFAs, which causes tissue defects mainly in the central nervous system and the adrenal glands. The majority of VLCFAs in the body are endogenously synthesized from long-chain fatty acids (LCFAs). Therefore, one potential way to prevent VLCFA accumulation in ALD is by inducing mitochondrial LCFA oxidation to reduce the availability of LCFAs for VLCFA biosynthesis. In order to test this, a previously described mouse model of ALD was used, in which the X-linked adrenoleukodystrophy gene abcd1 was systemically ablated and the knockout (AKO) mice faithfully recapitulated the abnormal VLCFA accumulation phenotype seen in ALD patients.
3-month-old AKO mice were treated with or without GW and their tissues collected for free FA analysis using GC/MS.

Which EC50 [1] does the source give for `CC(C)N(Cc1ccccc1OCCCCCC(=O)O)C(=O)c1ccc(Cl)cc1` [Compd 125] here?
Its EC50 is 291 nM.

For `CC(C)N(Cc1ccccc1OCCCCCC(=O)O)C(=O)c1ccc(N(C)C)cc1` [Compd 128], which EC50 [1] is on record?
Its EC50 is 5390 nM.

Which EC50 [1] does the source give for `Cc1ccc(C(=O)N(Cc2ccccc2OCCCCCC(=O)O)C(C)C)cc1` [Compd 131] here?
Its EC50 is 1610 nM.

With `CC(C)N(Cc1ccccc1OCCCCCC(=O)O)C(=O)c1ccc(C#CC2CC2)cc1` [Compd 245] as the molecule, how does the EC50 [1] read?
The EC50 was 10.5 nM.

Which results are given for `Cc1cc(SCc2sc(-c3ccc(C(F)(F)F)cc3)nc2C)ccc1OCC(=O)O` [GW501516]?
Kel ([2]; 3 mg/Kg i.v.): 0.11 h⁻¹; F ([2]; 10 mg/Kg p.o.): 82.1%; Kel ([3]; 3 mg/Kg i.v.): 0.09 h⁻¹; F ([3]; 10 mg/Kg p.o.): ~100%; % Parent remained at 15 min, MLM [4]: 93/76%; % Parent remained at 60 min, MLM [4]: 93/76%; Evans Blue dye uptake, proportion of muscle cross sectional area (CSA) stained ([5]; 5 mg/kg orally, 4 days prior to and 5 days after injury, 5 days after the injury, vehicle 7.6%): 4.9%; expression of inflammatory marker genes by QPCR ([5]; 3 days after the injury): significantly reduced; reduction in the proportion of stained area ([5]; 5 days after the injury, versus vehicle): 34.7%; PPARδ target genes (PDK4, CPT1b, catalase) expression in TA by QPCR ([5]; 9 day treatment): Up-regulation; number of quiescent satellite cells ([5]; after 9 days or 4 weeks of ligand treatment): an increase in the number of quiescent satellite cells was not observed; induction of FGF1a (luciferase reporter) [6]: induction of FGF1a

With `Cc1cc(SCc2sc(-c3ccc(C(F)(F)F)cc3)nc2C)ccc1OCC(=O)O` [GW] as the molecule, how does the “liver C26:0” value ([7]; 8 weeks of GW treatment) read?
The value was “cleared in most GW-treated animals”.

And the “levels of VLCFAs (C22:0, C23:0, C24:0, C26:0) in AKO brain and liver” value ([7]; 8 weeks of GW treatment, GC/MS)?
Its value is “significantly reduced”.

And the “expression of mitochondrial FA oxidation genes (Cpt1a, 1b, Slc25a20, Acadl) in AKO liver and skeletal muscle” value ([7]; GW treatment)?
Its value is “dramatically induced”.

What about the “saturated LCFAs C12:0 to C22:0 and total FAs in liver and muscle” value ([7]; GW treatment) of the same molecule?
Its value is “significantly reduced”.

Which EC50 [1] does the source give for `COc1ccc(C(=O)N(Cc2ccccc2OCCCCCC(=O)O)C(C)C)cc1` [compound 126] here?
The EC50 was 1300 nM.

Which EC50 [1] does the source give for `CC(C)N(Cc1ccccc1OCCCCCC(=O)O)C(=O)c1ccc(OC(F)(F)F)cc1` [compound 127] here?
Its EC50 is 44.6 nM.

Which EC50 [1] does the source give for `CC(=O)c1ccc(C(=O)N(Cc2ccccc2OCCCCCC(=O)O)C(C)C)cc1` [compound 129] here?
The EC50 was 5070 nM.

With `CC(C)N(Cc1ccccc1OCCCCCC(=O)O)C(=O)c1ccc(S(C)(=O)=O)cc1` [compound 130] as the molecule, how does the pEC50 [1] read?
Its pEC50 is less than 5.00.

For `CC(C)N(Cc1ccccc1OCCCCCC(=O)O)C(=O)c1ccc(F)cc1` [compound 132], which EC50 [1] is on record?
The EC50 was 2180 nM.

With `CC(C)N(Cc1ccccc1OCCCCCC(=O)O)C(=O)c1ccc(OC2CC2)cc1` [compound 134] as the molecule, how does the pEC50 [1] read?
The pEC50 was less than 5.00.

For `CC(C)N(Cc1ccccc1OCCCCCC(=O)O)C(=O)c1ccc(N2CCCC2)cc1` [compound 136], which EC50 [1] is on record?
The EC50 was 352 nM.

With `CC(C)N(Cc1ccccc1OCCCCCC(=O)O)C(=O)c1ccc(C#N)cc1` [compound 151] as the molecule, how does the EC50 [1] read?
Its EC50 is 894 nM.

With `CC(C)N(Cc1ccccc1OCCCCCC(=O)O)S(=O)(=O)c1ccc(-c2ccco2)cc1` [compound 152] as the molecule, how does the pEC50 [1] read?
The pEC50 was less than 5.00.

With `CC(C)N(Cc1ccccc1OCCCCCC(=O)O)C(=O)c1ccc(-c2ccco2)cn1` [compound 153] as the molecule, how does the pEC50 [1] read?
Its pEC50 is 6.69.

With `CC(C)N(Cc1ccccc1OCCCCCC(=O)O)C(=O)c1ccc(-c2ccco2)nc1` [compound 155] as the molecule, how does the pEC50 [1] read?
The pEC50 was 7.58.

With `CC(C)N(Cc1ccccc1OCCCCCC(=O)O)C(=O)c1cnc(-c2ccco2)s1` [compound 156] as the molecule, how does the pEC50 [1] read?
Its pEC50 is 6.84.

With `CC(C)N(Cc1ccc(-c2ccco2)cc1)C(=O)c1ccccc1OCCCCCC(=O)O` [compound 157] as the molecule, how does the pEC50 [1] read?
Its pEC50 is less than 5.00.

With `CC(C)N(C(=O)Cc1ccccc1OCCCCCC(=O)O)c1ccc(-c2ccco2)cc1` [compound 158] as the molecule, how does the pEC50 [1] read?
The pEC50 was less than 5.00.

With `O=C(O)CCCCCOc1ccccc1CN(CC(F)(F)F)C(=O)c1ccc(-c2ccco2)cc1` [compound 177] as the molecule, how does the pEC50 [1] read?
The pEC50 was 7.92.

With `COCCN(Cc1ccccc1OCCCCCC(=O)O)C(=O)c1ccc(-c2ccco2)cc1` [compound 178] as the molecule, how does the pEC50 [1] read?
The pEC50 was 7.10.

With `O=C(O)CCCCCOc1ccccc1CNC(=O)c1ccc(-c2ccco2)cc1` [compound 179] as the molecule, how does the pEC50 [1] read?
The pEC50 was 6.31.

With `CC(C)N(Cc1cc(Br)ccc1OCCCCCC(=O)O)C(=O)c1ccc(-c2ccco2)cc1` [compound 202] as the molecule, how does the EC50 [1] read?
The EC50 was 7.3 nM.

Which EC50 [1] does the source give for `Cc1ccc(OCCCCCC(=O)O)c(CN(C(=O)c2ccc(-c3ccco3)cc2)C(C)C)c1` [compound 203] here?
The EC50 was 7.1 nM.

With `CC(C)N(Cc1cc(F)ccc1OCCCCCC(=O)O)C(=O)c1ccc(-c2ccco2)cc1` [compound 204] as the molecule, how does the EC50 [1] read?
Its EC50 is 24.6 nM.

With `CC(C)N(Cc1cc(C#N)ccc1OCCCCCC(=O)O)C(=O)c1ccc(-c2ccco2)cc1` [compound 205] as the molecule, how does the pEC50 [1] read?
The pEC50 was 6.65.

For `COc1ccc(OCCCCCC(=O)O)c(CN(C(=O)c2ccc(-c3ccco3)cc2)C(C)C)c1` [compound 206], which EC50 [1] is on record?
The EC50 was 5.1 nM.

With `CC(C)N(Cc1cccnc1OCCCCCC(=O)O)C(=O)c1ccc(-c2ccco2)cc1` [compound 207] as the molecule, how does the pEC50 [1] read?
Its pEC50 is 7.71.

With `CC(C)N(Cc1ccccc1OCCCCc1nn[nH]n1)C(=O)c1ccc(-c2ccco2)cc1` [compound 219] as the molecule, how does the pEC50 [1] read?
Its pEC50 is 6.47.

With `CC(C)N(Cc1ccccc1OCCCCCCC(=O)O)C(=O)c1ccc(-c2ccco2)cc1` [compound 220] as the molecule, how does the EC50 [1] read?
The EC50 was 512 nM.

With `CC(C)N(Cc1ccccc1OCCCOCC(=O)O)C(=O)c1ccc(-c2ccco2)cc1` [compound 221] as the molecule, how does the pEC50 [1] read?
Its pEC50 is 5.89.

Which EC50 [1] does the source give for `O=C(O)CCCCCOc1ccccc1CN(Cc1ccccc1)C(=O)c1ccc(-c2ccco2)cc1` [compound 247] here?
Its EC50 is 18.8 nM.

For `CN(Cc1ccccc1OCCCCCC(=O)O)C(=O)c1ccc(C#CC2CC2)cc1` [compound 248], which EC50 [1] is on record?
The EC50 was 21.1 nM.
